# Assay results published in patent US11382328B2, “Rapid drug discovery methods for pathogen inactivation” (priority 2019, dated 2022).
# Test system: E. coli strain W3110
# Test: Synergy assays: Biolog chemical sensitivity panels with Group IB metal, coefficient of drug interaction (CDI) from relative growth
# Assay type: cell-based
# Conditions: for CDI (coefficient of drug interaction): E. coli; for CDI (coefficient of drug interaction), gold + biocide: Gold (μM)
# [1] = Copper (mM), 1st of 3 copper concentrations (head line not shown), biocide concentration 1 of 4
# [2] = Copper (mM), 1st of 3 copper concentrations (head line not shown), biocide concentration 2 of 4
# [3] = Copper (mM), 1st of 3 copper concentrations (head line not shown), biocide concentration 3 of 4
# [4] = Copper (mM), 1st of 3 copper concentrations (head line not shown), biocide concentration 4 of 4
# [5] = Copper (mM), 2nd of 3 copper concentrations (head line not shown), biocide concentration 1 of 4
# [6] = Copper (mM), 2nd of 3 copper concentrations (head line not shown), biocide concentration 2 of 4
# [7] = Copper (mM), 2nd of 3 copper concentrations (head line not shown), biocide concentration 3 of 4
# [8] = Copper (mM), 2nd of 3 copper concentrations (head line not shown), biocide concentration 4 of 4
# [9] = Copper (mM), 3rd of 3 copper concentrations (head line not shown), biocide concentration 1 of 4
# [10] = Copper (mM), 3rd of 3 copper concentrations (head line not shown), biocide concentration 2 of 4
# [11] = Copper (mM), 3rd of 3 copper concentrations (head line not shown), biocide concentration 3 of 4
# [12] = Copper (mM), 3rd of 3 copper concentrations (head line not shown), biocide concentration 4 of 4
# [13] = first of 3 gold concentrations, biocide concentration 2 of 4
# [14] = first of 3 gold concentrations, biocide concentration 3 of 4
# [15] = first of 3 gold concentrations, biocide concentration 4 of 4
# [16] = second of 3 gold concentrations, biocide concentration 1 of 4
# [17] = second of 3 gold concentrations, biocide concentration 2 of 4
# [18] = second of 3 gold concentrations, biocide concentration 3 of 4
# [19] = second of 3 gold concentrations, biocide concentration 4 of 4
# [20] = third of 3 gold concentrations, biocide concentration 1 of 4
# [21] = third of 3 gold concentrations, biocide concentration 2 of 4
# [22] = third of 3 gold concentrations, biocide concentration 3 of 4
# [23] = third of 3 gold concentrations, biocide concentration 4 of 4
# [24] = Silver 0.5 μM, biocide concentration 1 of 4
# [25] = Silver 0.5 μM, biocide concentration 2 of 4
# [26] = Silver 0.5 μM, biocide concentration 3 of 4
# [27] = Silver 0.5 μM, biocide concentration 4 of 4
# [28] = Silver 1.0 μM, biocide concentration 1 of 4
# [29] = Silver 1.0 μM, biocide concentration 2 of 4
# [30] = Silver 1.0 μM, biocide concentration 3 of 4
# [31] = Silver 1.0 μM, biocide concentration 4 of 4
# [32] = Silver 5.0 μM, biocide concentration 1 of 4
# [33] = Silver 5.0 μM, biocide concentration 2 of 4
# [34] = Silver 5.0 μM, biocide concentration 4 of 4
SMILES,CDI (coefficient of drug interaction) [1],CDI (coefficient of drug interaction) [2],CDI (coefficient of drug interaction) [3],CDI (coefficient of drug interaction) [4],CDI (coefficient of drug interaction) [5],CDI (coefficient of drug interaction) [6],CDI (coefficient of drug interaction) [7],CDI (coefficient of drug interaction) [8],CDI (coefficient of drug interaction) [9],CDI (coefficient of drug interaction) [10],CDI (coefficient of drug interaction) [11],CDI (coefficient of drug interaction) [12],"CDI (coefficient of drug interaction), gold + biocide [13]","CDI (coefficient of drug interaction), gold + biocide [14]","CDI (coefficient of drug interaction), gold + biocide [15]","CDI (coefficient of drug interaction), gold + biocide [16]","CDI (coefficient of drug interaction), gold + biocide [17]","CDI (coefficient of drug interaction), gold + biocide [18]","CDI (coefficient of drug interaction), gold + biocide [19]","CDI (coefficient of drug interaction), gold + biocide [20]",also measured
"O=[N+]([O-])c1ccc(O)c([N+](=O)[O-])c1 [2,4-dintrophenol]",0.87,0.83,1.10,Tox,0.76,0.64,0.99,Tox,0.50,0.49,1.14,Tox,1.02,1.27,Tox,1.02,0.94,1.02,Tox,0.85,"CDI (coefficient of drug interaction), gold + biocide (first of 3 gold concentrations, biocide concentration 1 of 4): 1.05; CDI (coefficient of drug interaction), gold + biocide [21]: 0.74; CDI (coefficient of drug interaction), gold + biocide [22]: 0.61; CDI (coefficient of drug interaction), gold + biocide [23]: Tox; CDI [24]: 0.72; CDI [25]: 0.80; CDI [26]: 0.86; CDI [27]: Tox; CDI [28]: 0.91; CDI [29]: 0.83; CDI [30]: 1.02; CDI [31]: Tox; CDI [32]: 1.10; CDI [33]: 1.04; CDI (Silver 5.0 μM, biocide concentration 3 of 4): 1.04; CDI [34]: Tox"
O=C(O)/C=C/c1ccccc1 [Cimamic acid],0.85,0.74,0.87,Tox,0.70,0.79,1.11,Tox,0.53,0.54,1.11,Tox,1.09,1.19,Tox,0.99,1.11,0.95,Tox,0.98,"CDI (coefficient of drug interaction), gold + biocide [21]: 0.85; CDI (coefficient of drug interaction), gold + biocide [22]: 0.96; CDI (coefficient of drug interaction), gold + biocide [23]: Tox; CDI [24]: 0.90; CDI [25]: 1.06; CDI [26]: 0.73; CDI [27]: Tox; CDI [28]: 0.88; CDI [29]: 0.93; CDI [30]: 0.99; CDI [31]: Tox; CDI [32]: 0.88; CDI [33]: 0.92; CDI [34]: Tox"
CCn1cc(C(=O)O)c(=O)c2cc(F)c(N3CCNC(C)C3)c(F)c21 (centres unmarked) [lomefloxacin],,,,,,,,,,,,,,,,,,,,,"CDI (coefficient of drug interaction) (Gold 50 μM, biocide concentration 4 of 4): Tox"
